In US20230346901A1, “METHODS AND VACCINE COMPOSITIONS TO TREAT CANCERS” (priority 2019, published 2023):
Ends that are not written are not given here.

Tests used:
[1] = test system: spleen cells from healthy mice; format: cell-based, mouse; settings: up to the highest concentration tested, 20 h
Description: FIG. 1: RT53 treatment increases APL mice survival. (A) The indicated cells were left untreated or exposed to increasing concentrations of RT53 for 20 h. Cell death induced by peptide treatment was measured by lactate dehydrogenase (LDH) release. Data are means±s.e.m. (n=3). (B) APL spleen cells were exposed to 5 μM of RT53 in the presence or absence of 50 μM zVAD-fmk or 50 μM Necrostatin-1 (Nec-1) for 3 h. Necrotic cell death was monitored by lactate dehydrogenase (LDH) release from cells into the culture medium. The obtained values were normalized to those of the maximum LDH released (completely lysed) control. Data are means±s.e.m. (n=3). (C) 104 APL blasts were inoculated intravenously (i.v.) into FVB/N mice at day zero. […] Survival curves were analyzed with the Mantel-Cox test. […] Survival curves were analyzed with the Mantel-Cox test.
Release of lactate dehydrogenase (LDH) and ATP in the culture medium were assessed with the CytoTox 96 Non-Radioactive Cytotoxicity Assay and Enliten ATP Assay, respectively (Promega, Madison, WI, USA). HMGB1 release in the culture medium was assessed with the HMGB1 ELISA kit (IBL International, Hamburg, Germany). […]

[2] = Organ toxicity in peptide-treated APL mice; format: in vivo, FVB/N mice; settings: either treatment schedule (data not shown)
Description: APL blasts (provided by Drs. M. Bishop and S. Kogan, UCSF, USA) origin from the spleen of mice bearing the human PML-RARA cDNA construct driven by a myeloid linage specific promoter (hMRP8) in the FVB/N inbred strain of mice. For amplification, cells (1×105 or 1×106) were suspended in PBS and transplanted by intravenous (i.v) tail injection (200 uL) into female syngeneic recipient mice (5-6 weeks old). Establishment of leukemia was assessed by a decrease in blood platelet counts approx. 3 weeks after graft. Spleen cells from a primary recipient were collected, washed, re-suspended in PBS and injected (10^4 cells/mouse; 200 uL) into the tail veins of male FVB/N mice (7-8 weeks old) for experiments. For direct treatment experiments, mice were treated daily or every other day (i.p) with normal saline, RT53 or RT39 at 2.4 mg/kg in normal saline starting from day 10 or day 20 for a total of 7 injections.
To explore the in vivo therapeutic potential of RT53 as a treatment of acute leukemia, we used a well-characterized preclinical APL model bearing the human PML-RARA oncogene which mimics human APL, both in its characteristics and its response to conventional therapeutic drugs such as ATRA and arsenic trioxide^9, 10. In this model, 100% of the syngeneic mice (FVB/N) transplanted with 104 primary recipients' spleen blasts developed an APL and succumbed within 30 days (FIG. 1C).

normal spleen cells = experiment: Electron microscopy ultrastructural analysis, normal spleen cells; format: cell-based, mouse; settings: normal spleen cells exposed to RT53 (data not shown)
Description: Samples were fixed in 3% glutaraldehyde in phosphate buffer, pH 7.4 for 1 hour, washed, post-fixed with 1% osmium tetroxide in 0.1 M phosphate buffer and then gradually dehydrated in 70, 90 and 100% ethanol. After 10 min in a 1:2 mixture of epoxy propane and epoxy resin and 10 min in epon, samples were embedded in epoxy resin and polymerized at 60° C. for 24 h. After polymerisation, ultrathin sections of 90 nm were cut with an ultra-microtome (Reichert ultracut S), stained with uranyl acetate and Reynold's lead and observed with a transmission electron microscope (JEOL 1011). Acquisition was performed with a Gatan Orius 1000 CCD camera.
To test the antileukemic properties of RT53, we first exposed human all-trans retinoic acid (ATRA)-sensitive (NB4) and ATRA-resistant (UF-1) acute promyelocytic leukemia (APL) cells as well as mouse APL spleen blast cells derived from hMRP8-PML-RARA transgenic mice9 to increasing concentrations of RT53.

U2OS cells = experiment: Immunogenic cell death markers (HMGB1, ATP release) in U2OS cells; format: cell-based
Description: ((A) U2OS cells were left untreated or exposed to increasing concentrations of RT39 for 3 h. Extracellular HMGB1 was then measured in the culture supernatant by an ELISA assay. Data are means±s.e.m. (n=3). (B) U2OS cells were left untreated or exposed to increasing concentrations of RT39 for 3 h. Extracellular ATP was then measured in the culture supernatant using an ATP-bioluminescence assay. Data are means±s.e.m. (n=3).
Release of lactate dehydrogenase (LDH) and ATP in the culture medium were assessed with the CytoTox 96 Non-Radioactive Cytotoxicity Assay and Enliten ATP Assay, respectively (Promega, Madison, WI, USA). HMGB1 release in the culture medium was assessed with the HMGB1 ELISA kit (IBL International, Hamburg, Germany).

[3] = U2OS cells, increasing concentrations of RT39, 3 h

Row | Sequence | cell death by LDH release in normal cells [1] | organ toxicity (macroscopic or microscopic) [2] | cellular integrity by ultrastructural analysis (normal spleen cells) | extracellular ATP release (ATP-bioluminescence) (U2OS cells; [3]) | extracellular HMGB1 release (ELISA) (U2OS cells; [3]) | calreticulin exposure (U2OS cells; stated in figure title only, cells not given)
1 | RQIKIWFQNRRMKWKKAKLNAEKLKDFKIRLQYFARGLQVYIRQLRLALQGKT [RT53] | no cell death was detected | No organ toxicity | No changes in cellular integrity or ruptured cells could be detected |  |  | 
2 | RQIKIWFQNRRMKWKKLQYFARGLQVYIRQLRLALQGKT (Synthetic Fusion protein RT39) [fusion of penetratin with AAC-11 leucine-zipper derived peptide (377-399)] |  |  |  | triggers calreticulin exposure as well as the release of HMGB1 and ATP | triggers calreticulin exposure as well as the release of HMGB1 and ATP | triggers calreticulin exposure
